From patent publication US10294218B2 (VIROSTATICS SRL, priority 2012, dated 2019)

system: laboratory strain of HIV-1; experiment: Antiviral activity against HIV (AV), p24 in infected activated primary T cells; format: cell-based; conditions: Human immunodeficiency virus 1, T-cell, read-out: AV50 (Inhibitory concentration 50% for antiviral activity)
Description: Activated primary T cells are infected with a laboratory strain of HIV-1, then cultured and exposed to different concentrations of the test compounds. HIV replication is analysed by measuring the viral protein p24 and expressed as percentage of untreated control. Inhibition of viral replication (AV) is then calculated (AV=100 minus the % p24 compared to control, AV of control=0%). Inhibitory concentration 50% for antiviral activity (AV50) is calculated.
(§1) In Tables 2, 3 and 4, ND means Not Determined.

Compound | IC50 [nM]
CCOc1ccccc1-c1cc(Nc2ccc(OC)c(N)c2)ncn1 [Example 62, N^1-[6-(2-Ethoxy-phenyl)-pyrimidin-4-yl]-4-methoxy-benzene-1,3-diamine] | < 80
COc1ccc(-c2cc(Nc3ccc(OC)c(N)c3)ncn2)cc1 [Example 66, 4-Methoxy-N^1-[6-(4-methoxy-phenyl)-pyrimidin-4-yl]-benzene-1,3-diamine] | > 10000
COc1cccc(-c2cc(Nc3ccc(OC)c(N)c3)ncn2)c1 [Example 68, 4-Methoxy-N^1-[6-(3-methoxy-phenyl)-pyrimidin-4-yl]-benzene-1,3-diamine] | 1000
COc1ccc(Nc2cc(-c3ccccc3O)ncn2)cc1N [Example 70, 2-[6-(3-Amino-4-methoxy-phenylamino)-pyrimidin-4-yl]-phenol] | > 10000
COc1ccc(Nc2cc(-c3ccccc3OCc3ccccc3)ncn2)cc1N [Example 71, N^1-[6-(2-Benzyloxy-phenyl)-pyrimidin-4-yl]-4-methoxy-benzene-1,3-diamine] | 2000
CCOc1cc(F)ccc1-c1cc(Nc2ccc(OC)c(N)c2)ncn1 [Example 73, N^1-[6-(2-Ethoxy-4-fluoro-phenyl)-pyrimidin-4-yl]-4-methoxy-benzene-1,3-diamine] | 0.2
COc1ccc(Nc2cc(-c3ccccc3Oc3ccccc3)ncn2)cc1N [Example 77, 4-Methoxy-N^1-[6-(2-phenoxy-phenyl)-pyrimidin-4-yl]-benzene-1,3-diamine] | 10000
COc1ccc(Nc2cc(-c3cccc(F)c3OC)ncn2)cc1N [Example 81, N^1-[6-(3-Fluoro-2-methoxy-phenyl)-pyrimidin-4-yl]-4-methoxy-benzene-1,3-diamine] | 60
COc1ccc(Nc2cc(-c3cc(F)c(F)cc3OC)ncn2)cc1N [Example 83, N^1-[6-(4,5-Difluoro-2-methoxy-phenyl)-pyrimidin-4-yl]-4-methoxy-benzene-1,3-diamine] | 7
COc1ccc(Nc2cc(-c3ccc(F)cc3OC(C)C)ncn2)cc1N [Example 86, N^1-[6-(4-Fluoro-2-isopropoxy-phenyl)-pyrimidin-4-yl]-4-methoxy-benzene-1,3-diamine] | 100
COc1ccccc1-c1cc(Nc2cc(N)c(OC)c(F)c2)ncn1 [Example 88, 5-Fluoro-4-methoxy-N^1-[6-(2-methoxy-phenyl)-pyrimidin-4-yl]-benzene-1,3-diamine] | > 400
CCOc1cc(F)ccc1-c1cc(Nc2cc(N)c(OC)c(F)c2)ncn1 [Example 89, N^1-[6-(2-Ethoxy-4-fluoro-phenyl)-pyrimidin-4-yl]-5-fluoro-4-methoxy-benzene-1,3-diamine] | > 400
COc1cc(F)ccc1-c1cc(Nc2cc(N)c(OC)c(F)c2)ncn1 [Example 90, 5-Fluoro-N^1-[6-(4-fluoro-2-methoxy-phenyl)-pyrimidin-4-yl]-4-methoxy-benzene-1,3-diamine] | > 400
COc1cc(F)c(Nc2cc(-c3ccccc3OC)ncn2)cc1N [Example 92, 4-Fluoro-6-methoxy-N^3-[6-(2-methoxy-phenyl)-pyrimidin-4-yl]-benzene-1,3-diamine] | 250
CCOc1ccc(Nc2cc(-c3ccccc3OC)ncn2)cc1N [Example 101, 4-Ethoxy-N^1-[6-(2-methoxy-phenyl)-pyrimidin-4-yl]-benzene-1,3-diamine] | 60
CCOc1ccc(Nc2cc(-c3ccc(F)cc3OC)ncn2)cc1N [Example 105, 4-Ethoxy-N^1-[6-(4-fluoro-2-methoxy-phenyl)-pyrimidin-4-yl]-benzene-1,3-diamine] | 16
COc1ccc(Nc2cc(-c3cc(F)ccc3OC)ncn2)cc1O [Example 122, 5-[6-(5-Fluoro-2-methoxy-phenyl)-pyrimidin-4-ylamino]-2-methoxy-phenol] | 80
COc1ccc(Nc2cc(-c3ccc(F)cc3OC)ncn2)cc1O [Example 123, 5-[6-(4-Fluoro-2-methoxy-phenyl)-pyrimidin-4-ylamino]-2-methoxy-phenol] | 50
CCOc1cc(F)ccc1-c1cc(Nc2ccc(OC)c(C(N)=O)c2)ncn1 [Example 130, 5-[6-(2-Ethoxy-4-fluoro-phenyl)-pyrimidin-4-ylamino]-2-methoxy-benzamide] | 16
CCOc1ccc(F)cc1-c1cc(Nc2ccc(OC)c(C(N)=O)c2)ncn1 [Example 131, 5-[6-(2-Ethoxy-5-fluoro-phenyl)-pyrimidin-4-ylamino]-2-methoxy-benzamide] | < 80
COc1ccccc1-c1cc(Nc2ccc(C(N)=O)c(Cl)c2)ncn1 [Example 132, 2-Chloro-4-[6-(2-methoxy-phenyl)-pyrimidin-4-ylamino]-benzamide] | 5000
COC(=O)c1ccc(Nc2cc(-c3ccccc3OC)ncn2)cc1OC [Example 133, 2-Methoxy-4-[6-(2-methoxy-phenyl)-pyrimidin-4-ylamino]-benzoic Acid Methyl Ester] | 7000
COc1ccccc1-c1cc(Nc2cc(F)c(OC)c(C(N)=O)c2)ncn1 [Example 137, 3-Fluoro-2-methoxy-5-[6-(2-methoxy-phenyl)-pyrimidin-4-ylamino]-benzamide] | > 2000
COc1cc(F)ccc1-c1cc(Nc2cc(F)c(OC)c(C(N)=O)c2)ncn1 [Example 138, 3-Fluoro-5-[6-(4-fluoro-2-methoxy-phenyl)-pyrimidin-4-ylamino]-2-methoxy-benzamide] | > 400
CCOc1cc(F)ccc1-c1cc(Nc2cc(F)c(OC)c(C(N)=O)c2)ncn1 [Example 139, 5-[6-(2-Ethoxy-4-fluoro-phenyl)-pyrimidin-4-ylamino]-3-fluoro-2-methoxy-benzamide] | 400
COc1ccc(F)cc1-c1cc(Nc2cc(F)c(OC)c(C(N)=O)c2)ncn1 [Example 140, 3-Fluoro-5-[6-(5-fluoro-2-methoxy-phenyl)-pyrimidin-4-ylamino]-2-methoxy-benzamide] | > 400
CCOc1ccccc1-c1cc(Nc2cc(F)c(OC)c(C(N)=O)c2)ncn1 [Example 141, 5-[6-(2-Ethoxy-phenyl)-pyrimidin-4-ylamino]-3-fluoro-2-methoxy-benzamide] | 80
CCOc1ccc(F)cc1-c1cc(Nc2cc(C(N)=O)c(OC)cc2F)ncn1 [Example 148, 5-[6-(2-Ethoxy-5-fluoro-phenyl)-pyrimidin-4-ylamino]-4-fluoro-2-methoxy-benzamide] | < 80

same assay, conditions: summary of AV, AP and cytotoxicity assays

Compound | antiviral and antiproliferative activity and cytotoxicity profile (in words)
CCOc1ccccc1-c1cc(Nc2ccc(OC)c(N)c2)ncn1 [Example 62, N^1-[6-(2-Ethoxy-phenyl)-pyrimidin-4-yl]-4-methoxy-benzene-1,3-diamine] | good antiviral and antiproliferative activity and a good cytotoxicity profile
CCOc1cc(F)ccc1-c1cc(Nc2ccc(OC)c(N)c2)ncn1 [Example 73, N^1-[6-(2-Ethoxy-4-fluoro-phenyl)-pyrimidin-4-yl]-4-methoxy-benzene-1,3-diamine] | good antiviral and antiproliferative activity and a good cytotoxicity profile
COc1ccc(Nc2cc(-c3cc(F)c(F)cc3OC)ncn2)cc1N [Example 83, N^1-[6-(4,5-Difluoro-2-methoxy-phenyl)-pyrimidin-4-yl]-4-methoxy-benzene-1,3-diamine] | good antiviral and antiproliferative activity and a good cytotoxicity profile
COc1ccc(Nc2cc(-c3ccc(F)cc3OC)ncn2)cc1O [Example 123, 5-[6-(4-Fluoro-2-methoxy-phenyl)-pyrimidin-4-ylamino]-2-methoxy-phenol] | good antiviral and antiproliferative activity and a good cytotoxicity profile
CCOc1cc(F)ccc1-c1cc(Nc2ccc(OC)c(C(N)=O)c2)ncn1 [Example 130, 5-[6-(2-Ethoxy-4-fluoro-phenyl)-pyrimidin-4-ylamino]-2-methoxy-benzamide] | good antiviral and antiproliferative activity and a good cytotoxicity profile
CCOc1ccc(F)cc1-c1cc(Nc2ccc(OC)c(C(N)=O)c2)ncn1 [Example 131, 5-[6-(2-Ethoxy-5-fluoro-phenyl)-pyrimidin-4-ylamino]-2-methoxy-benzamide] | good antiviral and antiproliferative activity and a good cytotoxicity profile
CCOc1ccccc1-c1cc(Nc2cc(F)c(OC)c(C(N)=O)c2)ncn1 [Example 141, 5-[6-(2-Ethoxy-phenyl)-pyrimidin-4-ylamino]-3-fluoro-2-methoxy-benzamide] | good antiviral and antiproliferative activity and a good cytotoxicity profile

system: Primary T cells; experiment: Antiproliferative activity (AP), mitotic index by flow cytometry; format: cell-based; conditions: T-cell, read-out: AP50 (Inhibitory concentration 50% for antiproliferative capacity)
Description: Primary T cells are cultured and exposed to different concentrations of the test compounds. Cell proliferation is analysed by measuring mitotic index (ie the number of cell divisions a population of cells undergoes) through flow cytometry based techniques. Mitotic index is expressed as percentage of untreated control. Inhibition of cell proliferation (AP) is then calculated (AP=100 minus % mitotic index compared to control, AP of control=0%). Inhibitory concentration 50% for antiproliferative capacity (AP50) is calculated.
as §1

Compound | IC50 [nM]
COc1ccc(Nc2cc(-c3ccccc3OC)ncn2)cc1CNCc1ccccc1 [Example 1, N-(3-((Benzylamino)methyl)-4-methoxyphenyl)-6-(2-methoxyphenyl)pyrimidin-4-amine] | 2500
COc1ccc(Nc2cc(-c3ccccc3OC)ncn2)cc1C(=O)NN [Example 33, 2-Methoxy-5-(6-(2-methoxyphenyl)pyrimidin-4-ylamino)benzohydrazide] | 2000
COc1ccc(Nc2cc(-c3ccccc3OC)ncn2)cc1CNc1ccccc1 [Example 34, N-(4-Methoxy-3-((phenylamino)methyl)phenyl)-6-(2-methoxyphenyl)pyrimidin-4-amine] | > 5000

same assay, conditions: T-cell; primary T cells, mitotic index; read-out: AP50 (Inhibitory concentration 50% for antiproliferative capacity)

Compound | IC50 [nM]
COc1ccccc1-c1cc(Nc2ccc(N3CCN(C)CC3)c(Cn3cnc4ccccc43)c2)ncn1 [Example 2, N-(3-((1H-Benzo[d]imidazol-1-yl)methyl)-4-(4-methylpiperazin-1-yl)phenyl)-6-(2-methoxyphenyl)pyrimidin-4-amine] | 400
COc1ccc(Nc2cc(-c3ccccc3OC)ncn2)cc1CNS(C)(=O)=O [Example 4, N-(2-Methoxy-5-(6-(2-methoxyphenyl)pyrimidin-4-ylamino)benzyl)methanesulfonamide] | 1500
COc1ccccc1-c1cc(Nc2ccc(Cl)c(C(=O)NN)c2)ncn1 [Example 7, 2-Chloro-5-(6-(2-methoxyphenyl)pyrimidin-4-ylamino)benzohydrazide] | 4000
COc1ccccc1-c1cc(Nc2ccc(OC)c([N+](=O)[O-])c2)ncn1 [Example 11, N-(4-Methoxy-3-nitrophenyl)-6-(2-methoxyphenyl)pyrimidin-4-amine] | > 1500
COc1ccccc1-c1cc(Nc2ccc(O)c([N+](=O)[O-])c2)ncn1 [Example 12, 4-(6-(2-methoxyphenyl)pyrimidin-4-ylamino)-2-nitrophenol] | > 1500
CCOC(=O)c1cc(Nc2cc(-c3ccccc3OC)ncn2)ccc1Cl [Example 14, Ethyl 2-chloro-5-(6-(2-methoxyphenyl)pyrimidin-4-ylamino)benzoate] | > 500
COc1ccccc1-c1cc(Nc2ccc(Cl)c(C(=O)N3CCCC3)c2)ncn1 [Example 15, (2-Chloro-5-(6-(2-methoxyphenyl)pyrimidin-4-ylamino)phenyl)(pyrrolidin-1-yl)methanone] | > 500
